According to article PMC10384862, “[^212Pb]Pb-eSOMA-01: A Promising Radioligand for Targeted Alpha Therapy of Neuroendocrine Tumors” (Pharmaceuticals, 2023):
Read-outs that look alike come from different tables or passages of the source.

Key:
[1] = In vitro stability in PBS; format: physicochemical; conditions: ^212Pb-labeled, 37 °C, n = 1
Procedure: The ^203Pb-labeled compounds (~ 2 MBq) or the ^212Pb-labeled compounds (~ 70 kBq) were incubated in 300 µL of phosphate buffered saline (PBS; 0.1 M, pH 7.4) or mouse serum at 37 °C. The stability of the radiolabeled peptides was monitored at 1, 4, and 24 h post-incubation. The samples in PBS were directly analyzed by radio-HPLC without any pretreatment. However, samples of mouse serum were mixed with an equal volume of acetonitrile to precipitate the proteins. The solution was centrifuged twice for 5 min at 13,000 rpm, and the supernatant was analyzed by radio-HPLC using Method 1 for lead-203 and Method 2 for lead-212.

[2] = Biodistribution study with lead-212; format: in vivo, mouse; conditions: mouse, intravenous; for tissue uptake at 1 h: 1 h p.i.; for tissue uptake at 4 h: 4 h p.i.
Procedure: (§1) Six-week-old male Balb/c nu/nu-specific and opportunistic pathogen-tree (SOPF) mice (Janvier Labs, Le Genest-Saint-Isle, France) were housed in individually ventilated cages, with four mice per cage. Upon arrival, the mice were acclimated for 1 week with access to food and water ad libitum. Mice were subcutaneously inoculated on the right shoulder with NCI-H69 cells (5 × 10^6 cells suspended in 100 μL of 1/3 Matrigel (Corning Inc.; Corning, NY, USA) and 2/3 Hank’s balanced salt solution (Gibco; Paisley, UK). NCI-H69 xenografts were allowed to grow for 3 weeks. Tumor sizes were 391 ± 173 mm^3 at the start of the studies.
(§2) Biodistribution studies were performed to determine tumor and organ uptake of [^212Pb]Pb-DOTAM-TATE, [^212Pb]Pb-eSOMA-01, and [^212Pb]Pb-eSOMA-02. Animals (n = 4 for each time point) were injected intravenously (i.v.) with an average of 100 kBq/0.5 nmol. At 3 selected time points (1, 4, and 24 h) p.i., blood was collected via retro-orbital puncture under isoflurane/O2 anesthesia, after which the mice were sacrificed via cervical dislocation. The tumor and organs of interest (heart, lungs, liver, spleen, stomach, large intestine, small intestine, pancreas, kidneys, muscle, skin, and bone) were excised, washed in PBS, and blotted dry. To confirm receptor specificity of radioligand uptake, mice (n = 3) were co-injected with an excess (25 nmol) of the respective unlabeled peptide, and uptake in the organs of interest was determined at 24 h p.i. To determine the total injected radioactivity per animal, a calibration curve with lead-212 was established using the gamma counter. The percentage of injected dose per gram (% ID/g) was determined for each tissue sample and corrected for both the injected volume and the % ID present at the injection site (the tail).

[3] = test system: H69-xenograft Balb/c nu/nu mice; assay: Biodistribution study with lead-212; format: in vivo, mouse; conditions: for Stomach uptake: 1 h p.i.
Procedure: as §1, §2

CD-1 mice = conditions: cited from earlier work; for Pancreas uptake: CD-1 mice
kidney uptake = conditions: in vivo; cited from earlier work
[4] = test system: H69-tumor xenograft and organs; assay: Dosimetry (absorbed dose from 212Pb biodistribution, RADAR mouse phantom); format: in vivo; conditions: based on MTD to the kidneys of 18–23 Gy
Procedure: Single exponential curves were fitted through the organ biodistribution time-activity data using Graphpad Prism. […] The absorbed doses were calculated with the MIRD equation D=∑sms×[TIACs]×S(t←s) , with ms being the source organ mass. A relative biological effect (RBE) of 5 was assumed for the alpha-radiation [47]. The uncertainty propagation in the dosimetry result was calculated [48].

[5] = blood, 100 kBq, n = 4, read-out: Blood uptake
[6] = bone, 100 kBq, n = 4, read-out: Bones uptake
[7] = heart, 100 kBq, n = 4, read-out: Heart uptake
[8] = intestines, 100 kBq, n = 4, read-out: Intestines uptake
[9] = intestines, 100 kBq, 24 h p.i., n = 4, read-out: Intestines uptake
[10] = kidneys, 100 kBq, n = 4, read-out: Kidneys uptake
[11] = kidneys, 100 kBq, 24 h p.i., n = 4, read-out: Kidneys uptake
[12] = kidneys, 24 h block: co-injection of excess (25 nmol) unlabeled peptide, read-out: Kidneys uptake
[13] = liver, 100 kBq, n = 4, read-out: Liver uptake
[14] = liver, 100 kBq, 24 h p.i., n = 4, read-out: Liver uptake
[15] = liver, 24 h block: co-injection of excess (25 nmol) unlabeled peptide, read-out: Liver uptake
[16] = lungs, 100 kBq, n = 4, read-out: Lungs uptake
[17] = lungs, 100 kBq, 24 h p.i., n = 4, read-out: Lungs uptake
[18] = pancreas, 100 kBq, n = 4, read-out: Pancreas uptake
[19] = skin, 100 kBq, n = 4, read-out: Skin uptake
[20] = spleen, 100 kBq, n = 4, read-out: Spleen uptake
[21] = stomach, 100 kBq, n = 4, read-out: Stomach uptake
[22] = stomach, 100 kBq, 24 h p.i., n = 4, read-out: Stomach uptake
[23] = stomach, 24 h block: co-injection of excess (25 nmol) unlabeled peptide, read-out: Stomach uptake
[24] = tumor, 100 kBq, n = 4, read-out: Tumor uptake
[25] = tumor, 100 kBq, 24 h p.i., n = 4, read-out: Tumor uptake

C[C@@H](O)[C@H](NC(=O)[C@@H]1CSSC[C@H](NC(=O)[C@@H](Cc2ccccc2)NC(=O)CN2CCN(CC(N)=O)CCN(CC(N)=O)CCN(CC(N)=O)CC2)C(=O)N[C@@H](Cc2ccc(O)cc2)C(=O)N[C@H](Cc2c[nH]c3ccccc23)C(=O)N[C@@H](CCCCN)C(=O)N[C@@H]([C@@H](C)O)C(=O)N1)C(=O)O [[^212Pb]Pb-DOTAM-TATE, metal not drawn, reference compound]
Stability in PBS, intact labeled ligand ([1]; 1 h): 99%
Stability in PBS, intact labeled ligand ([1]; 4 h): 98%
Stability in PBS, intact labeled ligand ([1]; 24 h): 95%
tissue uptake at 1 h [2, 5]: 1.34 ± 0.53 %ID/g
tissue uptake at 4 h [2, 5]: 0.02 ± 0.03 %ID/g
tissue uptake at 1 h [2, 6]: 0.69 ± 0.02 %ID/g
tissue uptake at 1 h [2, 7]: 0.61 ± 0.34 %ID/g
tissue uptake at 1 h [2, 8]: 2.03 ± 0.63 %ID/g
tissue uptake at 4 h [2, 8]: 0.68 ± 0.08 %ID/g
tissue uptake at 24 h [2, 9]: 0.22 ± 0.04 %ID/g
tissue uptake at 1 h [2, 10]: 53.5 ± 4.18 %ID/g
tissue uptake at 4 h [2, 10]: 49.4 ± 2.92 %ID/g
tissue uptake at 24 h [2, 11]: 29.2 ± 5.11 %ID/g
tissue uptake at 24 h [2, 12]: 25.8 ± 9.18 %ID/g
tissue uptake at 1 h [2, 13]: 2.69 ± 0.18 %ID/g
tissue uptake at 4 h [2, 13]: 2.26 ± 0.3 %ID/g
tissue uptake at 24 h [2, 14]: 1.42 ± 0.17 %ID/g
tissue uptake at 24 h [2, 15]: 0.25 ± 0.46 %ID/g
tissue uptake at 1 h [2, 16]: 2.75 ± 0.52 %ID/g
tissue uptake at 4 h [2, 16]: 0.82 ± 0.36 %ID/g
tissue uptake at 24 h [2, 17]: 0.33 ± 0.11 %ID/g
tissue uptake at 1 h [2, 18]: 5.19 ± 0.84 %ID/g
tissue uptake at 4 h [2, 18]: 1.14 ± 0.13 %ID/g
tissue uptake at 24 h ([2]; pancreas, 100 kBq, 24 h p.i., n = 4, read-out: Pancreas uptake): 0.28 ± 0.06 %ID/g
tissue uptake at 1 h [2, 19]: 1 ± 0.38 %ID/g
tissue uptake at 4 h [2, 19]: 0.59 ± 0.21 %ID/g
tissue uptake at 1 h [2, 20]: 0.55 ± 0.21 %ID/g
tissue uptake at 4 h [2, 20]: 0.22 ± 0.06 %ID/g
tissue uptake at 1 h [2, 21]: 2.69 ± 0.53 %ID/g
tissue uptake at 4 h [2, 21]: 1.62 ± 0.5 %ID/g
tissue uptake at 24 h [2, 22]: 0.61 ± 0.18 %ID/g
tissue uptake at 24 h [2, 23]: 0.25 ± 0.28 %ID/g
tissue uptake at 1 h [2, 24]: 9.57 ± 3.05 %ID/g
tissue uptake at 4 h [2, 24]: 8.04 ± 3.26 %ID/g
tissue uptake at 24 h [2, 25]: 6.07 ± 1.28 %ID/g
tissue uptake ([2]; tumor, 100 kBq, time point not stated): 8 to 9 %ID/g
Stomach uptake ([3]; n = 4): 2.7 % ID/g
Tumor uptake ([3]; 4 h p.i., n = 4): ~ 9 % ID/g
Kidneys uptake ([3]; 24 h p.i., n = 4): 29 ± 6 % ID/g
Tumor uptake ([3]; 24 h p.i., n = 4): ~ 6 % ID/g
Pancreas uptake (CD-1 mice; 1 h, ref Tworowska et al.): 32 % ID/g
Kidney uptake (CD-1 mice; 1 h, ref Tworowska et al.): 21 % ID/g
Pancreas uptake (CD-1 mice; 4 h, ref Tworowska et al.): 15 % ID/g
Kidney uptake (CD-1 mice; 24 h, ref Tworowska et al.): 10 % ID/g
MTD (maximum tolerated absorbed dose) to the kidneys (CD-1 mice; mice): 18–23 Gy
Tumor uptake (CD-1 mice; ref Tworowska et al.): ~ 20 % ID/g
Reduction in kidney uptake (kidney uptake): 3 fold

C[C@@H](O)[C@H](NC(=O)[C@@H]1CSSC[C@H](NC(=O)[C@@H](Cc2ccccc2)NC(=O)[C@H]2CC[C@H](CNC(=O)CN3CCN(CC(N)=O)CCN(CC(N)=O)CCN(CC(N)=O)CC3)CC2)C(=O)N[C@@H](Cc2ccc(O)cc2)C(=O)N[C@H](Cc2c[nH]c3ccccc23)C(=O)N[C@@H](CCCCN)C(=O)N[C@@H]([C@@H](C)O)C(=O)N1)C(=O)O [[^212Pb]Pb-eSOMA-01, metal not drawn]
Stability in PBS, intact labeled ligand ([1]; 1 h): 99%
Stability in PBS, intact labeled ligand ([1]; 4 h): 97%
Stability in PBS, intact labeled ligand ([1]; 24 h): 94%
tissue uptake at 1 h [2, 5]: 1.8 ± 0.37 %ID/g
tissue uptake at 1 h [2, 6]: 1.75 ± 0.44 %ID/g
tissue uptake at 4 h [2, 6]: 0.14 ± 0.09 %ID/g
tissue uptake at 1 h [2, 7]: 0.71 ± 0.33 %ID/g
tissue uptake at 1 h [2, 8]: 2.12 ± 0.39 %ID/g
tissue uptake at 4 h [2, 8]: 0.97 ± 0.12 %ID/g
tissue uptake at 24 h [2, 9]: 0.23 ± 0.02 %ID/g
tissue uptake at 24 h ([2]; intestines, 24 h block: co-injection of excess (25 nmol) unlabeled peptide, read-out: Intestines uptake): 0.06 ± 0.04 %ID/g
tissue uptake at 1 h [2, 10]: 78.8 ± 12.1 %ID/g
tissue uptake at 4 h [2, 10]: 39.6 ± 4.95 %ID/g
tissue uptake at 24 h [2, 11]: 22 ± 4.06 %ID/g
tissue uptake at 24 h [2, 12]: 17.8 ± 3.85 %ID/g
tissue uptake at 1 h [2, 13]: 4.72 ± 0.53 %ID/g
tissue uptake at 4 h [2, 13]: 2.73 ± 0.49 %ID/g
tissue uptake at 24 h [2, 14]: 1.7 ± 0.31 %ID/g
tissue uptake at 24 h [2, 15]: 1.07 ± 0.14 %ID/g
tissue uptake at 1 h [2, 16]: 4.05 ± 0.69 %ID/g
tissue uptake at 4 h [2, 16]: 1.38 ± 0.54 %ID/g
tissue uptake at 24 h [2, 17]: 0.44 ± 0.2 %ID/g
tissue uptake at 1 h ([2]; muscle, 100 kBq, n = 4, read-out: Muscle uptake): 0.22 ± 0.51 %ID/g
tissue uptake at 1 h [2, 18]: 7.86 ± 0.43 %ID/g
tissue uptake at 4 h [2, 18]: 1.72 ± 0.16 %ID/g
tissue uptake at 1 h [2, 19]: 2.23 ± 0.26 %ID/g
tissue uptake at 4 h [2, 19]: 0.17 ± 0.74 %ID/g
tissue uptake at 1 h [2, 20]: 0.98 ± 0.28 %ID/g
tissue uptake at 4 h [2, 20]: 0.23 ± 0.12 %ID/g
tissue uptake at 1 h [2, 21]: 7.08 ± 0.28 %ID/g
tissue uptake at 4 h [2, 21]: 2.51 ± 1.51 %ID/g
tissue uptake at 24 h [2, 22]: 0.87 ± 0.53 %ID/g
tissue uptake at 24 h [2, 23]: 0.05 ± 0.01 %ID/g
tissue uptake at 1 h [2, 24]: 16.1 ± 2.31 %ID/g
tissue uptake at 4 h [2, 24]: 10.9 ± 3.81 %ID/g
tissue uptake at 24 h [2, 25]: 6.83 ± 1.28 %ID/g
More tumor uptake than [212Pb]Pb-eSOMA-02 ([3]; 1 h and 24 h, p < 0.05): 61%
Stomach uptake ([3]; n = 4): 7.1 % ID/g
Tumor uptake ([3]; 4 h p.i., n = 4): ~ 9 % ID/g
Tumor uptake ([3]; 24 h p.i., n = 4): ~ 6 % ID/g
Maximum dose injected into mice [4]: around 0.2 MBq
